Assay results published in publication PMC7799360, “Reprogramming immunosuppressive myeloid cells facilitates immunotherapy for colorectal cancer” (EMBO Molecular Medicine, 2020).

System: mouse bone marrow cells
Assay: Macrophage polarization assay (M-CSF/IL-4/PGE2, M2 macrophages)
Format: cell-based
Conditions: M-CSF/IL-4/PGE2, 6 days, concentration-dependent
Protocol: Single‐cell suspensions of mouse BM cells were prepared by filtering femurs and tibias of 6‐week‐old female BALB/c mice through 40‐μm cell strainers (Falcon). These suspensions were treated with red blood cell lysis buffer and replated in conditioned medium. Monocyte differentiation, MDSC induction, and macrophage polarization were analyzed by FACS analysis (BD Biosciences) with FlowJo software.
For macrophage polarization assay (De Henau et al., 2016; Tan et al., 2018), mouse BM cells were cultured in RPMI1640 medium supplemented with recombinant mouse M‐CSF (20 ng/ml, Peprotech) to generate BM‐derived macrophages (BMDM). For FACS analysis of BM‐derived M2‐like macrophage, IL‐4 (20 ng/ml, Peprotech) and PGE2 (10 nM) were added on day 0. TP‐16 was added simultaneously with PGE2 on day 0 or sequentially on day 3 for differentiation over a period of 6 days. For qPCR analysis of macrophages (day 6), BMDMs were polarized with IFNγ (50 ng/ml, Peprotech) or IL‐4 (20 ng/ml, Peprotech) ± PGE2 (10 nM) ± TP‐16 for 24 h at 37°C on day 6. The culture medium was refreshed every 3 days.

**Q.** With `C[C@H](NC(=O)c1c(Cc2ccc(F)cc2)sc2c1CCOC2)c1ccc(C(=O)O)cc1` [TP-16] as the compound, how does the “PGE2-induced polarization of M2 macrophages” value read?
**A.** The value was “significantly suppressed”.
